In patent publication US4418079A, “Conjugated ketone compounds in preventing platelet thrombosis” (Sumitomo Chemical Company, Limited, priority 1978, dated 1983):
Converted amounts (≈) assume the structure as drawn. Counter-ions that a name gives are not always drawn. Like-named read-outs stand apart in the source and are kept apart here.

Assays:
[1] = system: collagen induced platelet aggregation; assay: In vitro inhibition of collagen induced platelet aggregation (aggregometer method of Born, modified by Mustard); format: cell-based, rabbit; conditions: Oryctolagus cuniculus
Protocol: (§1) The aggregometer method of Born [G. V. R. Born: J.Physiol., London, 162, 67 (1962)] as modified by Mustard et al. [J. F. Mustard et al.: J.Lab.Clin.Med., 64, 548 (1964)] was used to assess the in vitro activity of various compounds as to inhibition of collagen and adenosine diphosphate (ADP) induced platelet aggregation. Platelet rich plasma (PRP) was separated by centrifugation from citrated (3.8%) rabbit blood. ADP in final concentration of […] prepared according to the method described by Evans et al. [G. Evans et al.: J.Exp. Med., 128, 877 (1968)] was used to induce aggregation. The test compounds were dissolved in buffer solution so that 0.05 ml added to PRP would yield the desired test concentration. Vehicle control trials were done and compared with aggregation induced in platelet rich plasma containing various concentrations of the test compounds. Dose response curves were obtained, and 50% inhibitive concentration (IC50) values were calculated.

[2] = system: ADP induced platelet aggregation; assay: In vitro inhibition of ADP induced platelet aggregation (aggregometer method of Born, modified by Mustard); format: cell-based, rabbit; conditions: Oryctolagus cuniculus
Protocol: as §1

[3] = system: Neuroleptic activity (Anti apomorphine test); assay: Neuroleptic activity (anti apomorphine test); format: in vivo, rat; conditions: for neuroleptic activity, in words: rat, in vivo
From the text: No. ED50 (rat, s.c., mg/kg)
*P. A. J. Janssen et al.: ArzneimittelForschung, 15, 104-117 (1965)

[4] = system: collagen induced platelet aggregation; assay: Ex vivo inhibition of collagen induced aggregation in PRP after oral administration to rats; conditions: Rattus norvegicus, PRP 1 hour after oral administration, read-out: ED50, 50% inhibition of the aggregation (collagen)
Protocol: (§2) The conjugated ketone compounds [I] were also tested ex vivo in rats where ADP or collagen was used to induce aggregation in PRP samples obtained 1 hour after oral administration. Blood was drawn after dosing and the procedure of platelet aggregation was the same as the in vitro experiments. Inhibitory values were calculated compared with the activity of PRP samples of vehicle treated rats. The dose required to produce 50% inhibition of the aggregation (ED50) was determined by dose response data obtained in this manner.

[5] = system: blood platelet aggregation; assay: Blood platelet anti-aggregation activity (general statements); format: cell-based, rabbit; conditions: compared with compound [A] / compounds of U.S. Pat. No. 4,012,515
Protocol: as §1

[6] = system: ADP induced platelet aggregation; assay: Ex vivo inhibition of ADP induced aggregation in PRP after oral administration to rats; conditions: Rattus norvegicus, PRP 1 hour after oral administration, read-out: ED50, 50% inhibition of the aggregation (ADP)
Protocol: as §2

[7] = in vitro, Collagen, Table 2, read-out: Blood platelet aggregation inhibitory activity IC50, Collagen
[8] = in vitro, ADP, Table 2, read-out: Blood platelet aggregation inhibitory activity IC50, ADP
[9] = in vitro, rabbit PRP, collagen induced, Table 1, read-out: Inhibitory activity IC50, Collagen
[10] = in vitro, rabbit PRP, ADP induced, Table 1, read-out: Inhibitory activity IC50, ADP

Row | IC50 [1, 9] [µg/mL] | IC50 [2, 10] [µg/mL] | Structure (SMILES) | also measured
1 | – | – | O=C(/C=C/CN1CCC(O)(c2cccc(C(F)(F)F)c2)CC1)c1ccc(F)cc1 [A, reference compound] | IC50 [1, 7]: 3.5 µg/mL (≈ 8.59 µM); IC50 [2, 8]: 9 µg/mL (≈ 22.1 µM); ED50 ([3]; Rattus norvegicus, sc, read-out: Neuroleptic activity (Anti apomorphine test) ED50): 0.1 mg/kg
2 | 2 (≈ 10.6 µM) | 3.3 (≈ 17.4 µM) | CN(C)C/C=C/C(=O)c1ccccc1 [Compound 1] | –
3 | 2.2 (≈ 10.8 µM) | 3 (≈ 14.8 µM) | CCN(C)C/C=C/C(=O)c1ccccc1 [Compound 2] | –
4 | 1.3 (≈ 5.3 µM) | 2.5 (≈ 10.2 µM) | CCCN(C/C=C/C(=O)c1ccccc1)CCC [Compound 4] | –
5 | 1.6 (≈ 6.52 µM) | 3.7 (≈ 15.1 µM) | CC(C)N(C/C=C/C(=O)c1ccccc1)C(C)C [Compound 5] | –
6 | 2.7 (≈ 9.87 µM) | 5.2 (≈ 19 µM) | CCCCN(C/C=C/C(=O)c1ccccc1)CCCC [Compound 6] | –
7 | 2.4 (≈ 7.76 µM) | 3.6 (≈ 11.6 µM) | CN(C/C=C/C(=O)c1ccccc1)C12CC3CC(CC(C3)C1)C2 [Compound 7] | –
8 | 3.7 (≈ 14.4 µM) | 1.8 (≈ 6.99 µM) | CN(C/C=C/C(=O)c1ccccc1)C1CCCCC1 [Compound 8] | –
9 | 1.2 (≈ 5.57 µM) | 2.5 (≈ 11.6 µM) | O=C(/C=C/CN1CCCC1)c1ccccc1 [Compound 9] | –
10 | 1.8 (≈ 7.78 µM) | 6 (≈ 25.9 µM) | CCN(CC)CC/C=C/C(=O)c1ccccc1 [Compound 11] | –
11 | 2.8 (≈ 11.1 µM) | 3.1 (≈ 12.3 µM) | CCN(CC)C/C=C/C(=O)c1ccccc1Cl [Compound 12] | –
12 | 3.1 (≈ 11.8 µM) | 3.1 (≈ 11.8 µM) | O=C(/C=C/CN1CCCCC1)c1cccc(Cl)c1 [Compound 13] | –
13 | 2.5 (≈ 9.93 µM) | 1.6 (≈ 6.36 µM) | CCN(CC)C/C=C/C(=O)c1ccc(Cl)cc1 [Compound 14] | –
14 | 1.6 (≈ 6.07 µM) | 4.8 (≈ 18.2 µM) | O=C(/C=C/CN1CCCCC1)c1ccc(Cl)cc1 [Compound 15] | –
15 | 3 (≈ 9.73 µM) | 3.2 (≈ 10.4 µM) | O=C(/C=C/CN1CCCCC1)c1ccc(Br)cc1 [Compound 16] | –
16 | 1.5 (≈ 6.48 µM) | 2.3 (≈ 9.94 µM) | CCN(CC)C/C=C/C(=O)c1ccc(C)cc1 [Compound 17] | –
17 | 3.4 (≈ 14 µM) | 2 (≈ 8.22 µM) | Cc1ccc(C(=O)/C=C/CN2CCCCC2)cc1 [Compound 18] | –
18 | 3.5 (≈ 14.2 µM) | 3.7 (≈ 15 µM) | CCN(CC)C/C=C/C(=O)c1ccc(OC)cc1 [Compound 19] | –

Row | IC50 [1, 9] [µg/mL] | IC50 [2, 10] [µg/mL] | Structure (SMILES) | also measured
19 | 3.7 (≈ 14.2 µM) | 1.3 (≈ 4.97 µM) | CCN(CC)C/C=C/C(=O)c1ccc2c(c1)OCO2 [Compound 20] | –
20 | 3.7 (≈ 13.4 µM) | 3.2 (≈ 11.6 µM) | CSc1ccccc1C(=O)/C=C/CN1CCCCC1 [Compound 21] | –
21 | 2.2 (≈ 9.35 µM) | 1.2 (≈ 5.1 µM) | CSc1ccc(C(=O)/C=C/CN(C)C)cc1 [Compound 22] | –
22 | 2.4 (≈ 9.11 µM) | 1.4 (≈ 5.31 µM) | CCN(CC)C/C=C/C(=O)c1ccc(SC)cc1 [Compound 23] | –
23 | 2.6 (≈ 8.92 µM) | 3.6 (≈ 12.4 µM) | CCCN(C/C=C/C(=O)c1ccc(SC)cc1)CCC [Compound 24] | –
24 | 1.1 (≈ 4.21 µM) | 3 (≈ 11.5 µM) | CSc1ccc(C(=O)/C=C/CN2CCCC2)cc1 [Compound 25] | –
25 | 1.5 (≈ 5.45 µM) | 1.2 (≈ 4.36 µM) | CSc1ccc(C(=O)/C=C/CN2CCCCC2)cc1 [Compound 26] | –
26 | 4.2 (≈ 14.7 µM) | 3 (≈ 10.5 µM) | CCN(CC)C/C=C/C(=O)c1ccccc1C(F)(F)F [Compound 27] | –
27 | 3.1 (≈ 10.4 µM) | 2.7 (≈ 9.08 µM) | O=C(/C=C/CN1CCCCC1)c1ccc(C(F)(F)F)cc1 [Compound 28] | –
28 | 1.7 (≈ 6.36 µM) | 1.25 (≈ 4.68 µM) | CCN(CC)C/C=C/C(=O)c1ccc2ccccc2c1 [Compound 29] | –
29 | 2.2 (≈ 7.87 µM) | 2.2 (≈ 7.87 µM) | O=C(/C=C/CN1CCCCC1)c1ccc2ccccc2c1 [Compound 30] | –
30 | 1.8 (≈ 8.68 µM) | 3 (≈ 14.5 µM) | CCN(CC)C/C=C/C(=O)c1ccco1 [Compound 31] | –
31 | 5.8 (≈ 23.3 µM) | 4.5 (≈ 18 µM) | CCCCCCN(C)C/C=C/C(=O)c1ccco1 [Compound 32] | –
32 | 2.2 (≈ 10 µM) | 3.8 (≈ 17.3 µM) | O=C(/C=C/CN1CCCCC1)c1ccco1 [Compound 33] | –
33 | 2.3 (≈ 10.3 µM) | 3 (≈ 13.4 µM) | CCN(CC)C/C=C/C(=O)c1cccs1 [Compound 34] | –
34 | 1.8 (≈ 7.65 µM) | 2.8 (≈ 11.9 µM) | O=C(/C=C/CN1CCCCC1)c1cccs1 [Compound 35] | –
35 | – | – | COc1ccc(Cc2nccc3cc(OC)c(OC)cc23)cc1OC [Papaverine, reference compound] | IC50 ([1]; read-out: Inhibitory activity IC50, Collagen): 60 µg/mL (≈ 177 µM); IC50 ([2]; read-out: Inhibitory activity IC50, ADP): 65 µg/mL (≈ 192 µM)

Row | Structure (SMILES) | IC50 [1, 9] [µg/mL] | IC50 [2, 10] [µg/mL] | also measured
36 | CCN(CC)C/C=C/C(=O)c1ccccc1 [Compound 3, N-(4-Phenyl-4-oxo-2-trans-butenyl)-N,N-diethylamine hydrobromide] | 1.5 | 3.3 | IC50 [1, 7]: 1.5 µg/mL; ED50 [4]: 3 mg/kg; IC50 [2, 8]: 3.3 µg/mL; blood platelet anti-aggregation activity, in words [5]: more potent than the compound [A] in blood platelet anti-aggregation activity; ED50 [6]: 0.3 mg/kg; neuroleptic activity, in words [3]: does not produce any slight degree of neuroleptic activity; neuroleptic activity, in words ([3]; sc): No effect at 10 mg/kg
37 | O=C(/C=C/CN1CCCCC1)c1ccccc1 [Compound 10] | 3.2 (≈ 14 µM) | 5.2 (≈ 22.7 µM) | ED50 [4]: 2 mg/kg
38 | O=C(/C=C/CN1CC2CCC(CC2)C1)c1ccccc1 [Compound 36] | 1.2 (≈ 4.45 µM) | 2.7 (≈ 10 µM) | –
